Measured values as given in patent publication US10590178B2 (priority 2014, dated 2020).

Key:
Met6-8MAP = assay: Serum antibody ELISA after immunization, plates coated with Met6-8MAP; type: in vivo; details: after first booster; serum diluted 1:200; alum adjuvant; OD 492 nm
Procedure: Sera antibody titers were analyzed by ELISA. For DC-based immunization, the control groups were mice given DCs alone, or given DPBS alone, for all three injections. […] Fbb-8MAP or Met6-8MAP was dissolved at 5 μg/ml in PBS (pH 7.4), and used to coat 96-well ELISA plates with duplicate, serial, 2-fold dilutions of samples of each immune serum and control serum. Each well was treated with secondary antibody (goat anti-mouse polyvalent Ig-HRP, Sigma) and substrate (o-phenylenediamine and H2O2). Optical density was measured at 492 nm.
Serum samples were collected 14 days after immunization, diluted 1:200, and tested by ELISA on plates coated with the applicable peptide-8MAP conjugate. […] However, the immune responses to the MAP conjugates were substantially weaker than those induced by peptide-pulsed DC immunization.

C. albicans = assay: Chimeric double peptide-pulsed DC vaccination versus single peptides and mixture, lethal Candida challenge in mice (survival, kidney CFUs); details: for kidney CFUs: compared to non-immune mice / other vaccines
Procedure: Different groups of dendritic cells (DCs) were pulsed in vitro with Fba peptide, Met6 peptide, Fba-Met6 chimeric double peptide, or a mixture of the two peptides Fba and Met6. Briefly, DCs in culture were pulsed with the peptide antigen (1 μM) on day 6. On day 7, PGE2 (10^−7 M) was added along with LPS (2 μg/ml, Sigma) for 24 h. On day 9, antigen-pulsed DCs were washed extensively and 5×10^5 cells in 200 μl DPBS were injected into mice i.p. with complete Freund's adjuvant as the priming dose. The mice were boosted i.p. at day 14 with fresh antigen-pulsed DCs and adjuvant. The mice were again boosted i.p. at day 28 with fresh antigen-pulsed DCs, but the final boost used no adjuvant.
Two weeks after the second boost, immunized and control mice were both infected i.v. with a lethal dose of live C. albicans yeast cells (5×10^5 in 0.1 ml of DPBS), prepared as described above. Passively immunized mice (see below) also received the same challenge dose. Protection was evaluated by monitoring animal survival for 50-60 days. The mice were monitored for the development of a moribund state: defined as being listless, disinterested in food or water, and nonreactive to finger probing. Once a mouse was deemed moribund, it was sacrificed and its kidneys were homogenized in DPBS and plated onto a nutrient agar to determine the number of colony forming units of yeast (CFUs).

| Sequence | antibody response compared to negative control mice (DPBS or adjuvant only) (Met6-8MAP) | kidney CFUs (C. albicans; listed as Fba-Met6 chimeric double peptide vaccine) | kidney CFUs (C. albicans; listed as Fba-Met6 conjugate) | survival rate / protection (C. albicans; up to 60 days (end of experiment)) |
| --- | --- | --- | --- | --- |
| PRIGGQRELKKITE (Met6 peptide) [14-mer peptide from C. albicans cell wall protein Met6] | 4-5 fold |  |  |  |
| YGKDVKDLFDYAQEKKPRIGGQRELKKITE [Fba-KK-Met6] |  | only one mouse in that group exhibited any detectable kidney CFUs | much lower CFUs in kidneys | 100% |
